# Source: patent publication US20260002132A1, “METHOD FOR PRODUCING RENAL COLLECTING DUCT CELLS AND PELVIC EPITHELIAL CELLS” (Kyoto University, priority 2022, published 2026)
# Like-named read-outs stand apart in the source and are kept apart here.
# How the values were obtained:
# [1] = tested on: ureteric bud cells derived from Tet-On-ELF5-1231A3 iPS cells; format: cell-based, human; conditions: for effect on AQP2 expression in combination with IBMX: factor added together with IBMX
# Procedure: Ureteric bud organoids on Day 6 were prepared from the Tet-On-ELF5-1231A3 iPS cells using the method previously described (WO2021/066076). In a 1.5 mL tube, 10 ureteric bud organoids were collected and washed twice with 500 μL PBS. 100 μL Accutase was added thereto, and the mixture was incubated for 3 minutes at 37° C., 5% CO2. The ureteric bud organoids were completely transformed into single cells by pipetting, and 900 μL DMEM/10% PBS was added thereto to count cells.
# To a 24-well plate (6-well, 12-well, 48-well or 96-well plate, or 6-well, 12-well, or 24-well transwell plate may also be used), the necessary amount of suspension was collected to achieve 0.25 to 1.0×10^5 cells/cm^2, and centrifuged at 300 G for 5 minutes. The cell count was preferably 1×10^5 cells/cm^2. After removing the supernatant, cells were resuspended in a medium comprising DMEM/F12 GlutaMAX+B-27 Supplement minus vitamin A having 10% FBS, 1 μM A83-01, and 1 μM IWR-1 (renal collecting duct progenitor cell-induction medium) added thereto, to which 0.125 μg/cm^2 iMatrix-511 silk and 10 μM Y-27632 were added, and the suspension was adjusted and seeded so that each well contains 500 μL of the suspension. 0.1 μM TTNPB may be further added the medium.
# The medium may further comprise 0.1 μM TTNPB, 100 nM desmopressin (dDAVP), 10 nM aldosterone, and 100 nM K252a, and preferably a medium comprising 3 agents of TTNPB, dDAVP, and aldosterone is suitable. Thereafter, the medium was replaced once every 2 days, and the induction into the principal cells was completed on Day 4.
# The cultured cells were washed twice with PBS, and then, fixed with 4% PFA at 4° C. for 20 minutes. The cells were washed twice with PBS, and then, blocked using 2% normal donkey serum (MERCK)/PBT (PBS/0.25% Triton X-100, Nacalai tesque, Inc.) (blocking solution) at room temperature for 1 hour. Each primary antibody was diluted with the blocking solution at a rate of 1:200, and left to stand with samples at 4° C. for 24 hours. After washing twice with 0.25% PBT, each secondary antibody was diluted with the blocking solution at a rate of 1:500, and left to stand with samples at room temperature for 2 hours. The cells were observed using a microscope such as BZX-700 (Keyence Corporation).
# [2] = tested on: renal collecting duct principal cells; experiment: Apical-basal polarity of AQP2 in renal collecting duct principal cells, transwell culture; format: cell-based, human; conditions: 100 nM dDAVP added to the medium in the lower chamber
# Procedure: Ureteric bud organoids on Day 6 were prepared from the Tet-On-ELF5-1231A3 iPS cells using the method previously described (WO2021/066076). In a 1.5 mL tube, 10 ureteric bud organoids were collected and washed twice with 500 μL PBS. 100 μL Accutase was added thereto, and the mixture was incubated for 3 minutes at 37° C., 5% CO2. The ureteric bud organoids were completely transformed into single cells by pipetting, and 900 μL […] was added thereto to count cells. To evaluate the apical-basal polarity, the cells were seeded on a Transwell 12-well plate (Corning Inc., 3460). Specifically, the necessary amount of suspension was collected to achieve 0.5 to 2×10^5 cells/cm^2, and centrifuged at 300 G for 5 minutes. The cell count was preferably 1×10^5 cells/cm^2. After removing the supernatant, cells were resuspended in the renal collecting duct progenitor cell-induction medium, to which 0.125 μg/cm^2 iMatrix-511 silk and 10 μM Y-27632 were added, and the suspension was adjusted and seeded in the upper chamber so that each well contains 300 μL of the suspension. 0.1 μM TTNPB may be further added the medium. 2 or 3 days later, the medium in the upper chamber was removed, and 300 μL renal collecting duct principal cell-induction medium was placed in the lower chamber. […]
# [3] = tested on: renal collecting duct principal cell-containing organoid; experiment: Functional evaluation of renal collecting duct principal cell-containing organoids (water uptake, cystoid structure); format: cell-based, human; conditions: organoid on Day 6 of the induction
# Procedure: Ureteric bud organoids on Day 6 were prepared from the Tet-On-ELF5-1231A3 iPS cells using the method previously described (WO2021/066076). The medium was removed and replaced with the renal collecting duct progenitor cell-induction medium of 100 μL/well. 0.1 μM TTNPB may be further added the medium.
# 3 days later, the medium was replaced with the renal collecting duct principal cell-induction medium of 100 μL/well. The medium may further comprise 0.1 μM TTNPB, 100 nM dDAVP, 10 nM aldosterone, and 100 nM K252a, and preferably a medium comprising 3 agents of TTNPB, dDAVP, and aldosterone is suitable. The medium was replaced once every 2 days, and the preparation of principal cell-containing organoids was completed on Day 6.
# The functional evaluation tests were performed on the renal collecting duct principal cell-containing organoids. For the renal collecting duct principal cell-containing organoid on Day 6 of the induction, the medium was replaced with a renal collecting duct principal cell-induction medium, to which 1 μM dDAVP, or with 1 μM dDAVP and 10 μM tolvaptan were added.
# [4] = tested on: mouse renal collecting duct principal cell lines; conditions: previously reported (Ando F. et al., Nat Commun. 2018); cited from earlier work
# [5] = factor added to principal cell-induction medium excluding IBMX, planar culture
# [6] = 400 μM IBMX with 4 μM doxycycline in renal collecting duct progenitor cell-induction medium
smiles,measurement,setting,value
"C[C@]12CCC(=O)C=C1CC[C@@H]1[C@@H]2[C@@H](O)C[C@]2(C=O)[C@@H](C(=O)CO)CC[C@@H]12 [ALD, aldosterone]",AQP2 expression,[1]; [5],the AQP2 expression was not promoted
same,effect on AQP2 expression in combination with IBMX,[1]; planar culture,functioned additively with the addition of IBMX
"NC(=O)CC[C@@H]1NC(=O)[C@H](Cc2ccccc2)NC(=O)[C@H](Cc2ccc(O)cc2)NC(=O)[C@@H](N)CSSC[C@@H](C(=O)N2CCC[C@H]2C(=O)N[C@@H](CCCN=C(N)N)C(=O)NCC(N)=O)NC(=O)[C@H](CC(N)=O)NC1=O [AVP, arginine vasopressin]",AQP2 expression,[1]; [5],the AQP2 expression was not promoted
same,effect on AQP2 expression in combination with IBMX,[1]; planar culture,functioned additively with the addition of IBMX
"CC(C)Cn1c(=O)n(C)c(=O)c2[nH]cnc21 [IBMX, 3-isobutyl-1-methylxanthine]",AQP2 expression,[1]; [6],early expressed AQP2
same,AVPR2 expression,[1]; [6],expressed AVPR2
same,AQP2 expression,"[1]; IBMX added with dDAVP, or with either of AVP and dDAVP, ALD and K252a, planar culture",the AQP2 expression was promoted
same,number of AQP2-expressing cells,"[1]; IBMX at concentrations up to 400 μM, with 4 μM doxycycline",concentration-dependently increased
COC(=O)[C@@]1(O)C[C@H]2O[C@]1(C)n1c3ccccc3c3c4c(c5c6ccccc6n2c5c31)C(=O)NC4 [K252a],AQP2 expression,[1]; [5],the AQP2 expression was not promoted
same,effect on AQP2 expression in combination with IBMX,[1]; planar culture,functioned additively with the addition of IBMX
"NC(=O)CC[C@@H]1NC(=O)[C@H](Cc2ccccc2)NC(=O)[C@H](Cc2ccc(O)cc2)NC(=O)CCSSC[C@@H](C(=O)N2CCC[C@H]2C(=O)N[C@H](CCCN=C(N)N)C(=O)NCC(N)=O)NC(=O)[C@H](CC(N)=O)NC1=O [dDAVP, 1-desamino-8-D-arginine vasopressin]",effect on AQP2 expression in combination with IBMX,[1]; planar culture,functioned additively with the addition of IBMX
same,polarization of AQP2 expression,[2],increase in polarization of AQP2 expression to the contralateral side
same,water uptake and cystoid structure formation,[3]; 1 μM dDAVP,"water uptake was promoted from the next day, and a cystoid structure was formed"
same,AQP2 expression and apical polarization,[4],promotes AQP2 expression and causes apical polarization
Cc1ccccc1C(=O)Nc1ccc(C(=O)N2CCCC(O)c3cc(Cl)ccc32)c(C)c1 (stereo not drawn) [tolvaptan],formation of a cystoid structure,[3]; 10 μM tolvaptan together with 1 μM dDAVP,the formation of a cystoid structure was suppressed
